The test system of one data set is S. aureus. The conditions noted are these: Glycerol Esters of Fatty Acids; cited from earlier work.
Data set [1] deals with Staphylococcus aureus MRSA, ATCC 33591. The experiment in a line: in vitro Minimum Inhibitory Concentration (MIC), growth/no growth in dilution tubes. The format is cell-based. The note with it: for Concentration of the component at which bactericidal activity is still maintained in the three-component combination: dodecanol, glycerol monolaurate and benzoic acid combined; for MIC of Glycerol monolaurate in two-component combination: combined with 40 μg/mL Dodecanol. As to the method:
(§1) Now reported are in vitro Minimum Inhibitory Concentrations (MIC) for dodecanol against Staphylococcus aureus MRSA, ATCC 33591, Staphylococcus aureus VISA (Vancomycin intermediate sensitivity) ATCC 700699, and Enterococcus faecalis ATCC 51299 (formerly Streptococcus faecalis VREF (vancomycin resistant)). One tenth of a cc of dodecanol was diluted with 50 cc of polyethylene glycol 400 and 449.9 cc of sterilized deionized water, followed by five doubling dilutions. […] When combined with the other components of the formulation, a synergistic effect is seen such that bactericidal activity is still maintained even when the concentration of dodecanol is reduced to 20 μg/mL.
(§2) Now reported are in vitro Minimum Inhibitory Concentrations (MIC) for glycerol monolaurate against Staphylococcus aureus MRSA, ATCC 33591, Staphylococcus aureus VISA (Vancomycin intermediate sensitivity) ATCC 700699 and Vancomycin resistant Enterococcus faecalis ATCC 51299 (formerly Streptococcus faecalis VRSF). […] When combined with the other components of the formulation a synergistic effect is seen such that bactericidal activity is still maintained even when the concentration of glycerol monolaurate is reduced to 15 μg/mL.
The Minimum Inhibitory Concentration (MIC) for benzoic acid was determined against Staphylococcus aureus MRSA.
The MIC for dodecanol was experimentally determined to be about 83 micrograms/mL, the MIC for glycerol monolaurate was experimentally determined to be about 62.5 micrograms/mL, and the MIC for benzoic acid was experimentally determined to be about 1250 micrograms/mL. […] When a third component, the organic acid benzoic acid, was added to the formulation, the MICs for all three were much lower.

The subject of a further data set is Staphylococcus. The note with it: cited from earlier work.
Data set [2] relates to Enterococcus faecalis ATCC 51299. Put plainly: In vitro time-kill, one minute contact. The format is cell-based. The conditions noted are these: for CFU Recovered: Initial Count 5.6 × 10^6. The procedure: (§3) Dodecanol and glycerol monolaurate were diluted to 2,000 micrograms/mL and then diluted to the following concentrations: Dodecanol: 100 micrograms/mL and glycerol monolaurate: 250 micrograms/mL. Each challenge organism was confirmed by Gram stain and colony morphology. […] Log reductions and percent reductions presented in Tables VII and VIII below were calculated using the following equations: […]

In data set [3] the test system is Staphylococcus aureus VISA, ATCC 700699. Put plainly: In vitro time-kill, one minute contact. The data set is classed as cell-based. The note with it: for CFU Recovered: Initial Count 5.6 × 10^6. The procedure: as §3
The nature of data set [4]: Irritation of mucous membranes. The note with it: low concentrations (83 micrograms/mL).
The subject of data set [5] is Staphylococcus aureus MRSA, ATCC 33591. The experiment in a line: In vitro time-kill, one minute contact. The format is cell-based. The note with it: for CFU Recovered: Initial Count 5.6 × 10^6. As to the method: as §3
The nasal formulation of the invention was tested against S. aureus MRSA, ATCC 33591. The contact time for the formulation with the bacteria was one minute, after which time, an 8.3 log reduction in bacterial count was observed.
The hand and body wash formulation of the invention was tested against S. aureus MRSA, ATCC 33591 and MDR Klebsiella pneumoniae ATCC CI-2004.

The test system of data set [6] is Staphylococcus aureus VISA (Vancomycin intermediate sensitivity) ATCC 700699. The experiment in a line: in vitro Minimum Inhibitory Concentration (MIC), growth/no growth in dilution tubes. The data set is classed as cell-based. The conditions noted are these: for MIC: Staphylococcus aureus, read-out: MIC (Minimum Inhibitory Concentration). The procedure: as §1, §2

Data set [7] relates to Vancomycin resistant Enterococcus faecalis ATCC 51299. The description is as above. The data set is classed as cell-based. The procedure:
as §1, §2

Another data set deals with MRSA. The experiment in a line: Topical treatment of MRSA lesions in patients (case examples). The format is in vivo, human. The conditions noted are these: treatment before the formulation ointment; single patients. The text has this:
EXAMPLES OF SUCCESSFUL TREATMENT OF MRSA LESIONS USING THE NOVEL FORMULATIONS OF THE INVENTION ARE PROVIDED BELOW

Setting [8] is: Glycerol Monolaurate at 250 μg/mL.

The structures appear in SMILES notation. “Also recorded” adds a separate entry of the source. Like-named read-outs stand apart in the source and are kept apart here.
Throughout, for Growth or No Growth: key: Growth (+); No Growth (0).

Take `CCCCCCCCCCCCC(=O)OCC(O)CO` (centres unmarked) [13 Carbon Mono, Tridecanoyl monoglyceride]: in the data set with S. aureus, the “Minimum inhibitory concentration for Staphylococcus” value is given as “No Inhibition”.

On to `O=C(O)c1ccccc1` [Benzoic Acid, benzoic acid], for which the “Growth or No Growth” value in [1] (Benzoic Acid 625 μg/mL, S. aureus MRSA, Average CFU/mL 8.9 × 10^6) is recorded as “+”; in [1] (Benzoic Acid 1,250 μg/mL, S. aureus MRSA, Average CFU/mL 8.9 × 10^6), 0; in data set [1] (Benzoic Acid 2,500 μg/mL, S. aureus MRSA, Average CFU/mL 8.9 × 10^6), 0; in [1] (Benzoic Acid 5,000 μg/mL, S. aureus MRSA, Average CFU/mL 8.9 × 10^6), 0; in [1] (Benzoic Acid 10,000 μg/mL, S. aureus MRSA, Average CFU/mL 8.9 × 10^6) it was 0. The “MIC of Benzoic Acid in combination” value in [1] (Dodecanol (20 μ/mL) and Glycerol Monolaurate (15 μ/mL) held constant, MRSA) was <312.5 µg/mL. The MIC in data set [1] (S. aureus MRSA, Average CFU/mL 8.9 × 10^6, benzoic acid alone) was 1250 µg/mL; in [1] (Staphylococcus aureus, S. aureus MRSA, Average CFU/mL 8.9 × 10^6, benzoic acid alone), 1250 µg/mL. Further, the “Concentration of the component at which bactericidal activity is still maintained in the three-component combination” value (“Concentration of the component” for short) in data set [1] (MRSA) was 312.5 µg/mL.

In the case of `CCCCCCCCO` [C-8], the “Effective Bactericidal Concentration of Primary Alcohols against Staphylococcus” value (shortened to “Effective Bactericidal Concentration”) in the data set with Staphylococcus is listed as 800 Micrograms/mL.

With `CCCCCCCCCO` [C-9], the “Effective Bactericidal Concentration” value with Staphylococcus is listed as 200 Micrograms/mL.

For the compound `CCCCCCCCCCO` [C-10], in the data set on Staphylococcus, the “Effective Bactericidal Concentration” value is 50 Micrograms/mL.

On to `CCCCCCCCCCCO` [C-11], for which the “Effective Bactericidal Concentration” value in the data set with Staphylococcus is 25 Micrograms/mL.

In the case of `CCCCCCCCCCCCCO` [C-13], the “Effective Bactericidal Concentration” value in the data set with Staphylococcus is recorded as >800 Micrograms/mL.

As for `CCCCCCCCCCCCO` [Dodecanol, 1-dodecanol], the “% Reduction” value in data set [2] (Dodecanol at 100 μg/mL), in [3] (Dodecanol at 100 μg/mL) and in data set [5] (Dodecanol at 100 μg/mL) was 100% each time. The “Log Reduction” value is 7.04 in data set [2] (Dodecanol at 100 μg/mL), 7.18 in data set [3] (Dodecanol at 100 μg/mL) and 6.75 in data set [5] (Dodecanol at 100 μg/mL). Also, the “CFU Recovered” value in data set [2] (Dodecanol at 100 μg/mL), in data set [3] (Dodecanol at 100 μg/mL) and in data set [5] (Dodecanol at 100 μg/mL) was <5 × 10^0 CFU per mL throughout. Moreover, the “Effective Bactericidal Concentration” value with Staphylococcus was 12.5 Micrograms/mL. The “Irritating effects on the mucous membranes” value in [4] is given as “no irritating effects”. In addition, the MIC in [6] (S. aureus VISA, dodecanol alone) turned out to be 83 µg/mL; in data set [7] (Enterococcus faecalis, ATCC 51299 / VRE, E. faecalis VRE, dodecanol alone, read-out: MIC (Minimum Inhibitory Concentration)), 83 µg/mL; in data set [1] (Staphylococcus aureus, S. aureus MRSA, dodecanol alone, read-out: MIC (Minimum Inhibitory Concentration)), 83 µg/mL. Further, the “Growth or No Growth” value is listed as “+” in data set [6] (final concentration 2.53125 μg/mL, S. aureus VISA); “+” in data set [6] (final concentration 5.0625 μg/mL, S. aureus VISA); “+” in [6] (final concentration 10.125 μg/mL, S. aureus VISA); “+” in [6] (final concentration 20.25 μg/mL, S. aureus VISA); “+” in [6] (final concentration 41.5 μg/mL, S. aureus VISA); 0 in data set [6] (final concentration 83 μg/mL, S. aureus VISA). Besides, the “Growth or No Growth” value in data set [7] (final concentration 2.53125 μg/mL, E. faecalis VRE) is “+”; in data set [7] (final concentration 5.0625 μg/mL, E. faecalis VRE), “+”; in data set [7] (final concentration 10.125 μg/mL, E. faecalis VRE), “+”; in data set [7] (final concentration 20.25 μg/mL, E. faecalis VRE), “+”; in data set [7] (final concentration 41.5 μg/mL, E. faecalis VRE), “+”; in data set [7] (final concentration 83 μg/mL, E. faecalis VRE) it was 0. For the same compound, the “Growth or No Growth” value in data set [1] (final concentration 2.53125 μg/mL, S. aureus MRSA) is “+”; in data set [1] (final concentration 5.0625 μg/mL, S. aureus MRSA), “+”; in data set [1] (final concentration 10.125 μg/mL, S. aureus MRSA), “+”; in data set [1] (final concentration 20.25 μg/mL, S. aureus MRSA), “+”; in data set [1] (final concentration 41.5 μg/mL, S. aureus MRSA) it was “+”; in data set [1] (final concentration 83 μg/mL, S. aureus MRSA) it was 0. The “MIC of Dodecanol in two-component combination” value in data set [1] (combined with 30 μg/mL Glycerol monolaurate, S. aureus MRSA) amounted to 40 μg/mL Dodecanol. Besides, in [1] (MRSA), the “Concentration of the component” value was 20 µg/mL.

For the compound `CCCCCCCCCCCC(=O)OCC(O)CO` (centres unmarked) [Glycerol Monolaurate, glycerol monolaurate], the “Minimum inhibitory concentration for Staphylococcus” value with S. aureus is recorded as 250 micrograms/mL. For the same compound, the “% Reduction” value in data set [2] (setting [8]), in data set [3] (setting [8]) and in [5] (setting [8]) was 100% in each case. In addition, the “Log Reduction” value in data set [2] (setting [8]) turned out to be 7.04; in data set [3] (setting [8]), 7.1; in [5] (setting [8]), 6.75. The “CFU Recovered” value in data set [2] (setting [8]), in [3] (setting [8]) and in data set [5] (setting [8]) was <5 × 10^0 CFU per mL each time. In addition, the MIC turned out to be 62.5 µg/mL in data set [6]; 125 µg/mL in [7] (Enterococcus faecalis, ATCC51299, read-out: MIC (Minimum Inhibitory Concentration)); 62.5 µg/mL in [1] (Staphylococcus aureus, read-out: MIC (Minimum Inhibitory Concentration), S. aureus MRSA, glycerol monolaurate alone). Also, the “Growth or No Growth” value in data set [6] (final concentration 31.25 micrograms/mL, S. aureus VISA) was “+”; in data set [6] (final concentration 62.5 micrograms/mL, S. aureus VISA), 0; in [6] (final concentration 125 micrograms/mL, S. aureus VISA), 0; in [6] (final concentration 250 micrograms/mL, S. aureus VISA), 0; in [7] (final concentration 31.25 micrograms/mL, Enterococcus faecalis), “+”; in data set [7] (final concentration 62.5 micrograms/mL, Enterococcus faecalis), “+”. Further, the “Growth or No Growth” value is given as 0 in [7] (final concentration 125 micrograms/mL, Enterococcus faecalis); 0 in [7] (final concentration 250 micrograms/mL, Enterococcus faecalis); “+” in [1] (final concentration 31.25 micrograms/mL, S. aureus MRSA); 0 in [1] (final concentration 62.5 micrograms/mL, S. aureus MRSA); 0 in data set [1] (final concentration 125 micrograms/mL, S. aureus MRSA); 0 in [1] (final concentration 250 micrograms/mL, S. aureus MRSA). The “MIC (Minimum Inhibitory Concentration)” value in [1] (S. aureus MRSA, glycerol monolaurate alone) was 62.5 micrograms/mL; in data set [1] (S. aureus MRSA, glycerol monolaurate alone, listed as Glycerol monolaurate), 62.5 micrograms/mL. The “MIC of Glycerol monolaurate in two-component combination” value was 30 μg/mL Glycerol monolaurate in data set [1] (S. aureus MRSA, listed as Glycerol monolaurate) and ~30 µg/mL in data set [1] (S. aureus MRSA, listed as glycerol monolaurate). For the same compound, the “Concentration of the component” value in data set [1] (MRSA) is 15 µg/mL.

For the compound `C/C(=C\C(=O)OCCCCCCCCC(=O)O)C[C@@H]1OC[C@H](C[C@@H]2O[C@H]2[C@@H](C)[C@H](C)O)[C@@H](O)[C@H]1O` [mupirocin], the “Clinical outcome of prior treatment of MRSA lesions” value in the data set on MRSA is “the MRSA was still present in the patient's sinuses; also recorded: unsuccessfully treated”.

Source of the values: US8420627B2, “Nasal, wound and skin formulations and methods for control of antibiotic-resistant staphylococci and other gram-positive bacteria” (priority 2009, dated 2013).
